ChEMBL document CHEMBL3232779, “Discovery of a potent stapled helix peptide that binds to the 70N domain of replication protein A” (J Med Chem, 2014)
Positions of bridges follow the written chain, without caps; N, C: chain ends. Non-standard residues stand in square brackets, D forms with d. Residues, ends and D or L forms follow the SMILES beside them. *: point of attachment. X1 = O=C(O)c1cc(NC(=S)*)ccc1-c1c2ccc(=O)cc-2oc2cc(O)ccc12; Phe(3,4-Cl2) = N[C@@H](Cc1ccc(Cl)c(Cl)c1)C(=O)O; R5 = C=CCCC[C@@](C)(N)C(=O)O

target: T1, Replication protein A 70 kDa DNA-binding subunit (Homo sapiens, UniProt P27694); assay: Binding affinity to recombinant human RPA70 A/B region (181 to 422 amino acids) expressed in Escherichia coli Rosetta by fluorescence polarization anisotropy assay
T1 sequence (P27694 whole entry, the tested form may be a part): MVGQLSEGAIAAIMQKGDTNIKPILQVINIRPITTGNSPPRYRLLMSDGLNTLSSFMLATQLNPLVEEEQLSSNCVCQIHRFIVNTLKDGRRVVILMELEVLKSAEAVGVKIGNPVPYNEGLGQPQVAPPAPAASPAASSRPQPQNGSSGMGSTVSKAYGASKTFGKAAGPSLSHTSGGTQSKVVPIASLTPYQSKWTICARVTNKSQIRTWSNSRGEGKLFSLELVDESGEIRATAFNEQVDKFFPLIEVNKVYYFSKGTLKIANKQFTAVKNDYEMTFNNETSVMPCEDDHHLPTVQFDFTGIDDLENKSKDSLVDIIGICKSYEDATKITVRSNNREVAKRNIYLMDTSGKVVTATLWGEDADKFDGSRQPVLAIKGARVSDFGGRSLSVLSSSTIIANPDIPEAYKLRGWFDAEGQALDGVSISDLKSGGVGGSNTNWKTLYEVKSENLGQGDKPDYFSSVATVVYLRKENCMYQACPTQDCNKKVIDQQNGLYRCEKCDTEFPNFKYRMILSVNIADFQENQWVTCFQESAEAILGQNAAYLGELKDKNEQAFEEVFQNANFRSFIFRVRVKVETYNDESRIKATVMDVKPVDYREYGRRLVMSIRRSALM

Compound | Kd [µM]
CC(C)C[C@H](NC(=O)[C@H](C)NC(=O)[C@H](Cc1ccccc1)NC(=O)[C@H](Cc1c[nH]c2ccccc12)NC(=O)[C@@]1(C)CCC/C=C\CCC[C@@](C)(NC(=O)[C@H](C)NC(=O)[C@@H](NC(=O)[C@H](Cc2ccccc2)NC(=O)[C@H](CC(N)=O)NC(=S)Nc2ccc(-c3c4ccc(=O)cc-4oc4cc(O)ccc34)c(C(=O)O)c2)[C@@H](C)O)C(=O)N[C@@H](CC(N)=O)C(=O)N[C@@H](CC(C)C)C(=O)N[C@@H](CCC(=O)O)C(=O)N1)C(=O)O (X1-NFTA[R5]NLE[R5]WFAL-OH; staple (Z) 5-9) | 12

target: not listed separately; assay: Binding affinity to recombinant human RPA70C/32D/14 by fluorescence polarization anisotropy assay

Compound | Kd [µM]
CC(C)C[C@H](NC(=O)[C@H](C)NC(=O)[C@H](Cc1ccccc1)NC(=O)[C@H](Cc1c[nH]c2ccccc12)NC(=O)[C@@]1(C)CCC/C=C\CCC[C@@](C)(NC(=O)[C@H](C)NC(=O)[C@@H](NC(=O)[C@H](Cc2ccccc2)NC(=O)[C@H](CC(N)=O)NC(=S)Nc2ccc(-c3c4ccc(=O)cc-4oc4cc(O)ccc34)c(C(=O)O)c2)[C@@H](C)O)C(=O)N[C@@H](CC(N)=O)C(=O)N[C@@H](CC(C)C)C(=O)N[C@@H](CCC(=O)O)C(=O)N1)C(=O)O (X1-NFTA[R5]NLE[R5]WFAL-OH; staple (Z) 5-9) | 12

test system: U2OS; assay: Cellular uptake in human U2OS cells after 24 hrs by confocal microscopy; type: ADME, cell-based; call rule not given here

Compound | Drug uptake
CC(C)C[C@H](NC(=O)[C@H](C)NC(=O)[C@H](Cc1ccccc1)NC(=O)[C@H](Cc1c[nH]c2ccccc12)NC(=O)[C@@]1(C)CCC/C=C\CCC[C@@](C)(NC(=O)[C@H](C)NC(=O)[C@@H](NC(=O)[C@H](Cc2ccccc2)NC(=O)[C@H](CC(=O)O)NC(=S)Nc2ccc(-c3c4ccc(=O)cc-4oc4cc(O)ccc34)c(C(=O)O)c2)[C@@H](C)O)C(=O)N[C@@H](CC(N)=O)C(=O)N[C@@H](CC(C)C)C(=O)N[C@@H](CCC(=O)O)C(=O)N1)C(=O)O (X1-DFTA[R5]NLE[R5]WFAL-OH; staple (Z) 5-9) | Active
CC(C)C[C@H](NC(=O)[C@H](C)NC(=O)[C@H](Cc1ccccc1)NC(=O)[C@H](Cc1c[nH]c2ccccc12)NC(=O)[C@@]1(C)CCC/C=C\CCC[C@@](C)(NC(=O)[C@H](C)NC(=O)[C@@H](NC(=O)[C@H](Cc2ccccc2)NC(=O)[C@H](CC(=O)O)NC(=S)Nc2ccc(-c3c4ccc(=O)cc-4oc4cc(O)ccc34)c(C(=O)O)c2)[C@@H](C)O)C(=O)N[C@@H](CC(=O)O)C(=O)N[C@@H](CC(C)C)C(=O)N[C@@H](CCC(=O)O)C(=O)N1)C(=O)O (X1-DFTA[R5]DLE[R5]WFAL-OH; staple (Z) 5-9) | Not Active
CC(C)C[C@H](NC(=O)[C@H](C)NC(=O)[C@H](Cc1ccccc1)NC(=O)[C@H](Cc1c[nH]c2ccccc12)NC(=O)[C@@]1(C)CCC/C=C\CCC[C@@](C)(NC(=O)[C@H](C)NC(=O)[C@@H](NC(=O)[C@H](Cc2ccccc2)NC(=O)[C@H](CC(N)=O)NC(=S)Nc2ccc(-c3c4ccc(=O)cc-4oc4cc(O)ccc34)c(C(=O)O)c2)[C@@H](C)O)C(=O)N[C@@H](CC(N)=O)C(=O)N[C@@H](CC(C)C)C(=O)N[C@@H](CCC(=O)O)C(=O)N1)C(=O)O (X1-NFTA[R5]NLE[R5]WFAL-OH; staple (Z) 5-9) | Active

target: T1, Replication protein A 70 kDa DNA-binding subunit

Compound | Kd [µM]
CC(C)C[C@H](NC(=O)[C@H](C)NC(=O)[C@H](Cc1ccccc1)NC(=O)[C@H](Cc1c[nH]c2ccccc12)NC(=O)[C@@]1(C)CCC/C=C\CCC[C@@](C)(NC(=O)[C@H](C)NC(=O)[C@@H](NC(=O)[C@H](Cc2ccccc2)NC(=O)[C@H](CC(=O)O)NC(=S)Nc2ccc(-c3c4ccc(=O)cc-4oc4cc(O)ccc34)c(C(=O)O)c2)[C@@H](C)O)C(=O)N[C@@H](CC(N)=O)C(=O)N[C@@H](CC(C)C)C(=O)N[C@@H](CCC(=O)O)C(=O)N1)C(=O)O (X1-DFTA[R5]NLE[R5]WFAL-OH; staple (Z) 5-9) | 3.7
CC(C)C[C@H](NC(=O)[C@H](C)NC(=O)[C@H](Cc1ccccc1)NC(=O)[C@H](Cc1c[nH]c2ccccc12)NC(=O)[C@H](C)NC(=O)[C@H](CCC(=O)O)NC(=O)[C@H](CC(C)C)NC(=O)[C@H](CC(N)=O)NC(=O)[C@H](C)NC(=O)[C@H](C)NC(=O)[C@@H](NC(=O)[C@H](Cc1ccccc1)NC(=O)[C@H](CC(N)=O)NC(=S)Nc1ccc(-c2c3ccc(=O)cc-3oc3cc(O)ccc23)c(C(=O)O)c1)[C@@H](C)O)C(=O)N[C@@H](C)C(=O)N[C@@H](CO)C(N)=O (X1-NFTAANLEAWFALAS-NH2) | 21
Ac-DFTAADLEELDTLAS-NH2 | 31
CC(C)C[C@H](NC(=O)[C@H](CC(=O)O)NC(=O)[C@H](CC(=O)O)NC(=O)[C@H](C)NC(=O)[C@@H](NC(=O)[C@H](Cc1ccccc1)NC(=O)[C@H](CC(=O)O)NC(=S)Nc1ccc(-c2c3ccc(=O)cc-3oc3cc(O)ccc23)c(C(=O)O)c1)[C@@H](C)O)C(=O)N[C@@H](CCC(=O)O)C(=O)N[C@@H](CCC(=O)O)C(=O)N[C@@H](Cc1c[nH]c2ccccc12)C(=O)N[C@@H](Cc1ccccc1)C(=O)N[C@@H](C)C(N)=O (X1-DFTADDLEEWFA-NH2) | 0.91
Ac-DFTADDLEQWFALAS-NH2 | 2.6
CC(C)C[C@H](NC(=O)[C@H](CC(=O)O)NC(=O)[C@H](CC(=O)O)NC(=O)[C@H](C)NC(=O)[C@@H](NC(=O)[C@H](Cc1ccccc1)NC(=O)[C@H](CC(=O)O)NC(=S)Nc1ccc(-c2c3ccc(=O)cc-3oc3cc(O)ccc23)c(C(=O)O)c1)[C@@H](C)O)C(=O)N[C@@H](CCC(=O)O)C(=O)N[C@@H](CCC(=O)O)C(=O)N[C@@H](CC(C)C)C(=O)N[C@@H](CC(=O)O)C(=O)N[C@H](C(=O)N[C@@H](CC(C)C)C(=O)N[C@@H](C)C(=O)N[C@@H](CO)C(N)=O)[C@@H](C)O (X1-DFTADDLEELDTLAS-NH2) | 6.4
CC(C)C[C@H](NC(=O)[C@H](C)NC(=O)[C@H](Cc1ccc(Cl)c(Cl)c1)NC(=O)[C@H](Cc1c[nH]c2ccccc12)NC(=O)[C@H](CCC(=O)O)NC(=O)[C@H](CCC(=O)O)NC(=O)[C@H](CC(C)C)NC(=O)[C@H](CC(=O)O)NC(=O)[C@H](CC(=O)O)NC(=O)[C@H](C)NC(=O)[C@@H](NC(=O)[C@H](Cc1ccccc1)NC(=O)[C@H](CC(=O)O)NC(=S)Nc1ccc(-c2c3ccc(=O)cc-3oc3cc(O)ccc23)c(C(=O)O)c1)[C@@H](C)O)C(N)=O (X1-DFTADDLEEW[Phe(3,4-Cl2)]AL-NH2) | 0.022
Ac-DFTADDLEELFTLAS-NH2 | 22
CC(C)C[C@H](NC(=O)[C@H](C)NC(=O)[C@H](Cc1ccccc1)NC(=O)[C@H](Cc1c[nH]c2ccccc12)NC(=O)[C@@]1(C)CCC/C=C\CCC[C@@](C)(NC(=O)[C@H](C)NC(=O)[C@@H](NC(=O)[C@H](Cc2ccccc2)NC(=O)[C@H](CC(=O)O)NC(=S)Nc2ccc(-c3c4ccc(=O)cc-4oc4cc(O)ccc34)c(C(=O)O)c2)[C@@H](C)O)C(=O)N[C@@H](CC(=O)O)C(=O)N[C@@H](CC(C)C)C(=O)N[C@@H](CCC(=O)O)C(=O)N1)C(=O)O (X1-DFTA[R5]DLE[R5]WFAL-OH; staple (Z) 5-9) | 0.57
Ac-DFTADDLEEADTLAS-NH2 | 197
Ac-DFTADDLAELDTLAS-OH | 22
Ac-DFTADNLEEWFALAS-NH2 | 6.9
Ac-DFTAADLEEWFALAS-NH2 | 2.3
Ac-DFTADDLEAWFALAS-NH2 | 2.4
CC(C)C[C@H](NC(=O)[C@H](C)NC(=O)[C@H](Cc1ccccc1)NC(=O)[C@H](Cc1c[nH]c2ccccc12)NC(=O)[C@@]1(C)CCC/C=C\CCC[C@@](C)(NC(=O)[C@H](C)NC(=O)[C@@H](NC(=O)[C@H](Cc2ccccc2)NC(=O)[C@H](CC(N)=O)NC(=S)Nc2ccc(-c3c4ccc(=O)cc-4oc4cc(O)ccc34)c(C(=O)O)c2)[C@@H](C)O)C(=O)N[C@@H](CC(=O)O)C(=O)N[C@@H](CC(C)C)C(=O)N[C@@H](CCC(=O)O)C(=O)N1)C(=O)O (X1-NFTA[R5]DLE[R5]WFAL-OH; staple (Z) 5-9) | 1.5
Ac-DFAADDLEELDTLAS-NH2 | 152
Ac-DFTADALEEWFALAS-NH2 | 28
Ac-DFTADDLEEWFALAS-NH2 | 1.2
Ac-DFTADDLAEWFALAS-NH2 | 28
Ac-DFTANDLEEWFALAS-NH2 | 19
CC(C)C[C@H](NC(=O)[C@H](C)NC(=O)[C@H](Cc1ccc(Cl)c(Cl)c1)NC(=O)[C@H](Cc1c[nH]c2ccccc12)NC(=O)[C@@]1(C)CCC/C=C\CCC[C@@](C)(NC(=O)[C@H](C)NC(=O)[C@@H](NC(=O)[C@H](Cc2ccccc2)NC(=O)[C@H](CC(N)=O)NC(=S)Nc2ccc(-c3c4ccc(=O)cc-4oc4cc(O)ccc34)c(C(=O)O)c2)[C@@H](C)O)C(=O)N[C@@H](CC(=O)O)C(=O)N[C@@H](CC(C)C)C(=O)N[C@@H](CCC(=O)O)C(=O)N1)C(=O)O (X1-NFTA[R5]DLE[R5]W[Phe(3,4-Cl2)]AL-OH; staple (Z) 5-9) | 0.048
CC(C)C[C@H](NC(=O)[C@H](C)NC(=O)[C@H](Cc1ccccc1)NC(=O)[C@H](Cc1c[nH]c2ccccc12)NC(=O)[C@@]1(C)CCC/C=C\CCC[C@@](C)(NC(=O)[C@H](C)NC(=O)[C@@H](NC(=O)[C@H](Cc2ccccc2)NC(=O)[C@H](CC(N)=O)NC(=S)Nc2ccc(-c3c4ccc(=O)cc-4oc4cc(O)ccc34)c(C(=O)O)c2)[C@@H](C)O)C(=O)N[C@@H](CC(N)=O)C(=O)N[C@@H](CC(C)C)C(=O)N[C@@H](CCC(=O)O)C(=O)N1)C(=O)O (X1-NFTA[R5]NLE[R5]WFAL-OH; staple (Z) 5-9) | 7.4
Ac-NFTADDLEEWFALAS-NH2 | 5.8

More lines, now with the values ahead:

Kd [µM] | Compound
167 | Ac-DFTADDLEALDTLAS-NH2
138 | Ac-DFTADDLEEWDTLAS-NH2
225 | Ac-DFTADALEELDTLAS-NH2
26 | Ac-DFTADDLEELDTLAA-NH2
20 | Ac-DFTADDLAELDALAS-NH2
63 | Ac-DFTADDLEELDTAAS-NH2
172 | Ac-DFTADDAEELDTLAS-NH2
0.33 | CC(C)C[C@H](NC(=O)[C@H](C)NC(=O)[C@H](Cc1ccccc1)NC(=O)[C@H](Cc1c[nH]c2ccccc12)NC(=O)[C@H](CCC(=O)O)NC(=O)[C@H](CCC(=O)O)NC(=O)[C@H](CC(C)C)NC(=O)[C@H](CC(=O)O)NC(=O)[C@H](CC(=O)O)NC(=O)[C@H](C)NC(=O)[C@@H](NC(=O)[C@H](Cc1ccccc1)NC(=O)[C@H](CC(=O)O)NC(=S)Nc1ccc(-c2c3ccc(=O)cc-3oc3cc(O)ccc23)c(C(=O)O)c1)[C@@H](C)O)C(N)=O (X1-DFTADDLEEWFAL-NH2)
152 | Ac-AFTADDLEELDTLAS-NH2
85 | Ac-DFTADDLEELATLAS-NH2
17 | Ac-DFTADDLEELDALAS-NH2
0.58 | CC(C)C[C@H](NC(=O)[C@H](C)NC(=O)[C@H](Cc1ccccc1)NC(=O)[C@H](Cc1c[nH]c2ccccc12)NC(=O)[C@H](CCC(=O)O)NC(=O)[C@H](CCC(=O)O)NC(=O)[C@H](CC(C)C)NC(=O)[C@H](CC(=O)O)NC(=O)[C@H](CC(=O)O)NC(=O)[C@H](C)NC(=O)[C@@H](NC(=O)[C@H](Cc1ccccc1)NC(=O)[C@H](CC(=O)O)NC(=S)Nc1ccc(-c2c3ccc(=O)cc-3oc3cc(O)ccc23)c(C(=O)O)c1)[C@@H](C)O)C(=O)N[C@@H](C)C(N)=O (X1-DFTADDLEEWFALA-NH2)
2.7 | Ac-DFTADDLEEWFTLAS-NH2
43 | Ac-DFTADDLAEWFTLAS-NH2
